Biological target: T1, MBP-MtHPS (MtHPS, HPS, halimadienyl-diphosphate synthase, Rv3377c) (Mycobacterium tuberculosis, UniProt O50406)
T1 sequence (O50406 1-501): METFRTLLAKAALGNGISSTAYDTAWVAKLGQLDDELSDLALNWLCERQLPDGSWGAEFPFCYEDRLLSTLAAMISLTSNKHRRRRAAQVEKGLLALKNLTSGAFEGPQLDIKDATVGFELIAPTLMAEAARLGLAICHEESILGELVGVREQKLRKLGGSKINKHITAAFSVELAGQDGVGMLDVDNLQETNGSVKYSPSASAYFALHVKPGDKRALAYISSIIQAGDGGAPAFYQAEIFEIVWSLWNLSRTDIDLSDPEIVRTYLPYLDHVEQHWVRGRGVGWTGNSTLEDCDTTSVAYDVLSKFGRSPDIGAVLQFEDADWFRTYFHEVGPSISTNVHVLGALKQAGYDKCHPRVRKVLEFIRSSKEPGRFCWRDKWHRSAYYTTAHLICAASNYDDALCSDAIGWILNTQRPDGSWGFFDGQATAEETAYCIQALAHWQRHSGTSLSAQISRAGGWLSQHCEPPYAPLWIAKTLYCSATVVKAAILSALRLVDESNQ
Test: GC-FID conversion of GGPP to HPP, substrate inhibition equation
Format: biochemical
Settings: 0.1 mM Mg2+, pH 7.75, 25 nM enzyme, 1 min

Structure (SMILES): CC(C)=CCC/C(C)=C/CC/C(C)=C/CC/C(C)=C/COP(=O)(O)OP(=O)(O)O [1a, GGPP]
- Ki: 18 ± 6 µM
